“Also recorded” adds a separate entry of the source.
Tests used:
[1] = tested on: rM-1, ARPE-19 and Hep G2 cell lines; experiment: Cell counting assay, statements for the three cell lines together; type: cell-based, Rat; Human; settings: for effect on cell growth: same conditions as bromoquinone (up to 10 μM, 48 hours)
Procedure: (§1) Cell Counting Assay: For the cell counting assay, rMc-1, ARPE-19, and HepG2 cells were cultured in DMEM with 4.5 g/L glucose supplemented with 10% fetal bovine serum (FBS), penicillin, and streptomycin. These cells were seeded at 50% confluency before bromoquinone treatment. About 5,000 cells were seeded in a 24-well plate and treated with various amounts of bromoquinone and incubated at 37° C. under 5% CO2. Cell growth was examined by cell counting stained with Trypan Blue. The Raw264.7 and L929 cells were cultured in DMEM supplemented with 10% (vol/vol) heat-inactivated FBS (SH30910.03; Hyclone) at 37° C. and 5% CO2. THP-1 cells were cultured in RPMI-1640 medium supplemented with 10% (v/v) heat-inactivated FBS at 37° C. and 5% CO2.
(§2) When the cell lines (rM-1, ARPE-19 and Hep G2) were cultured for 48 hours in their corresponding media in the presence of various concentrations (0, 0.5, 2.5. 5, and 10 μM) of bromoquinone, the cell survival rate decreased as the concentration of bromoquinone increased. When the concentration of bromoquinone was 10 μM, the cell survival rate decreased by 70-80%, while under the same conditions, no effect on cell growth was observed if normal coenzyme Q or Q0C10 was used.

ADSC cells = experiment: Cell growth by cell counting, Trypan Blue and hemocytometer (FIG. 4A); type: cell-based, Human
Procedure: (§3) FIGS. 4A, 4B, and 4C illustrate the effect of bromoquinone on cell growth of HEK293, HeLa, INS-1, and ADSC cells. […] Cells were stained with bisbenzimide.
(§4) Cell Attachment Assay: For the cell attachment assay, Raw264.7 and L929 cells were pre-seeded (100,000 cells/well) in 12-well plates (overnight incubation) at 37° C. and 5% CO2. Bromoquinone was added 24 hours after pre-seeding, and cell attachment was determined by counting attached cells at 72 hours post-treatment. THP-1 cells were pre-seeded (100,000 cells/well) in the presence of 320 nM phorbol-12-myristate-13-acetate (PMA) in 12-well plates (overnight incubation) at 37° C. and 5% CO2. Bromoquinone was added 24 hours after pre-seeding, and cell attachment was determined by counting attached cells at 72 hours post-treatment. Raw264.7, L929, and THP-1 cells were cultured in 12-well plates (100,000 cells/well) in the presence of bromoquinone for 72 hours at 37° C. and 5% CO2. The live cell number was determined by Trypan Blue staining. HEK293 and HeLa cells were cultured in DMEM supplemented with 10% (v/v) fetal bovine serum and 1% (v/v) penicillin-streptomycin. INS-1 cells were cultured in RPMI 1640 media supplemented with 10% (v/v) FBS and 1% (v/v) penicillin-streptomycin. All the cells were incubated at 37° C. and 5% CO2 atmosphere in 10-cm plates. When the cells reached about-80% confluency, they were harvested and cultured on 96-well plates with 5×10^3 cells seeded per well. For each cell line, three 96-well plates were prepared—one for MTT assay and two for bisbenzimide-based nuclear fluorescent stain assay. After 24-hour incubation, the culture medium was replaced by the same medium containing various concentrations (0, 4, 8, 16, 32, and 64 μM) of bromoquinone. Three replicates were made for each condition. The plates then continued to be incubated for another 24 hours (two plates) or 48 hours (one plate). One plate with 24-hour treatment was used for the MTT cell viability assay. The other 24-hour treatment plate and the 48-hour treatment plate were used for the Bisbenzimide-based nuclear fluorescent stain cell imaging.
(§5) As described above, cell lines were cultured in their corresponding media in the presence of various concentrations of bromoquinone (0, 2, 4, 8, 16, 32, and 64 μM) for 48 and 72 hours. […] Similar results were obtained using the MTT assay (FIG. 4B). As expected, when the incubation was prolonged to 72 hours, more inhibition was observed.

HEK-293 cells = experiment: as above; type: cell-based, Human
Procedure: as §3, §4, §5

HeLa cells = experiment: as above; type: cell-based, Human
Procedure: as §3, §4, §5

rMC-1 cells = experiment: Cell counting assay (Trypan Blue), cell growth; type: cell-based, Rat; settings: 48 hours
Procedure: as §1, §2

INS-1 cell line = experiment: Cell growth inhibition (FIG. 4); type: cell-based, Rat; settings: INS-1, highest concentration tested
Procedure: as §3
(§6) Cell Attachment Assay: For the cell attachment assay, Raw264.7 and L929 cells were pre-seeded (100,000 cells/well) in 12-well plates (overnight incubation) at 37° C. and 5% CO2. Bromoquinone was added 24 hours after pre-seeding, and cell attachment was determined by counting attached cells at 72 hours post-treatment. THP-1 cells were pre-seeded (100,000 cells/well) in the presence of 320 nM phorbol-12-myristate-13-acetate (PMA) in 12-well plates (overnight incubation) at 37° C. and 5% CO2. Bromoquinone was added 24 hours after pre-seeding, and cell attachment was determined by counting attached cells at 72 hours post-treatment. Raw264.7, L929, and THP-1 cells were cultured in 12-well plates (100,000 cells/well) in the presence of bromoquinone for 72 hours at 37° C. and 5% CO2. The live cell number was determined by Trypan Blue staining. HEK293 and HeLa cells were cultured in DMEM supplemented with 10% (v/v) fetal bovine serum and 1% (v/v) penicillin-streptomycin. INS-1 cells were cultured in RPMI 1640 media supplemented with 10% (v/v) FBS and 1% (v/v) penicillin-streptomycin. All the cells were incubated at 37° C. and 5% CO2 atmosphere in 10-cm plates. […]

[2] = Rat growth study: body weight gain, toxicity, food and water consumption; type: in vivo
Procedure: 6-Br-Q0C10: Crude 6-Br-Q0C10 was available in the laboratory. It was further purified to homogeneity using thin layer chromatography. The purity of 6-Br-Q0C10 was confirmed by its absorption peak at 303 nm and the concentration was determined spectrophotometrically, using a millimolar extinction coefficient of 20 cm^−1 (13), Carboyxmethyl cellulose was obtained from Amazon. Olive oil and unsalted butter were obtained from the local supermarket. 9 Male F344 (born on Sep. 28, 2023) were purchased from Evigo RMS, Inc, 8520 Allison Pointe Blvd, Suite 4000, Indianapolis, Indiana 46250 on Oct. 17, 2023.
The rats were divided into three groups, three rats in each group. We followed their growth by body weight gained daily until Nov. 5, 2023, and then one group of rats received the 6-Br-Q0C10 treatment, and the second group received only the carrier media used to dissolve the 6-Br-Q0C10, and the third group was used as control without any treatment. All rats had free access to rat chow and water.
Various concentrations of 6-Br-Q0C10 were dissolved in 1% and 1.5% CMC, 40% ethanol, and a mixture of oil and unsalted butter (67:33). 6-Br-Q0C10 solutions and carriers were given to the rats by IG in a volume of 0.3 mL daily. The body weights of the rats were measured and recorded individually and as a group. JACUC Protocol No: SC2101

[3] = tested on: isolated beef liver mitochondria; experiment: Energy coupling (oxidative phosphorylation) in isolated mitochondria treated with bromoquinone; type: biochemical; settings: NADH linked substrate; 2 instead of 3
Procedure: Introducing an electron-withdrawing group such as bromine should have an effect on the redox potential and UV spectrum, and this is indeed the case. Bromoquinone has a higher redox potential than that of Coenzyme Q10, by about 30 mV and UV spectral shift by 24 nm. A decrease of approximately 30% of energy conservation efficiency has been observed in isolated mitochondria that were treated with bromoquinone. This decrease may be due to the loss of energy conservation site II at Complex III in the bromoquinone-treated mitochondria (2).
When the rats were given 0.3 mL of a high fat mixture daily in addition to normal diet, a significant increase in weight gain was observed. […] Using NADH linked substrate 6-Br-Q0C10 treated mitochondria has a P/O ratio of 2 instead of 3. 6-Br-Q0C10 causes a by-passing of oxidative phosphorylation site 2 because of its high redox-potential.

Redox potential = type: physicochemical; settings: difference to Coenzyme Q10
Hep G2 cells = experiment: Cell counting assay (Trypan Blue), cell growth; type: cell-based, Human; settings: for Effect of Bromoquinone on the Growth (cell survival, % of 0 μM): Hep G2 cells, 48 hours
Procedure: as §1, §2

ARPE19 cells = experiment: Cell counting assay (Trypan Blue), cell growth; type: cell-based, Human; settings: 48 hours
Procedure: as §1, §2

[4] = tested on: L-929, Raw 264-7 and THP-1 cells; experiment: Cell attachment assay (FIG. 3B); type: cell-based, Mouse; Human; settings: 72 hours post-treatment
Procedure: as §6, with “plates. When the cells reached about-80% confluency, they were harvested and cultured on 96-well plates with 5×10^3 cells seeded per well.” for “plates.”

[5] = tested on: L-929, Raw 264-7 and THP-1 cells; experiment: Cell growth, live cell number by Trypan Blue (FIG. 3A); type: cell-based, Mouse; Human
Procedure: as §1
Cell Attachment Assay: For the cell attachment assay, Raw264.7 and L929 cells were pre-seeded (100,000 cells/well) in 12-well plates (overnight incubation) at 37° C. and 5% CO2. Bromoquinone was added 24 hours after pre-seeding, and cell attachment was determined by counting attached cells at 72 hours post-treatment. […] Bromoquinone was added 24 hours after pre-seeding, and cell attachment was determined by counting attached cells at 72 hours post-treatment. […] The live cell number was determined by Trypan Blue staining. […]

[6] = tested on: commercially available cell lines; experiment: Cell growth of commercially available cell lines (halogen-Q0C10); type: cell-based; settings: many commercially available cell lines

CCCCCCCCCCC1=C(Br)C(=O)C(OC)=C(OC)C1=O [6-Br-Q0C10, 6-Bromo-2,3-dimethoxy-5-decyl-1,4-benzoquinone]
decrease of cell survival rate ([1]; 10 μM, 48 hours): 70-80% | inhibition (cell growth, cell counting) (ADSC cells; 48 hours of treatment, FIG. 4A): 82% | inhibition (cell growth) (ADSC cells; 72 hours): 90% | inhibition (cell growth, cell counting) (HEK-293 cells; HEK-293, 48 hours of treatment, FIG. 4A): 69% | inhibition (cell growth) (HEK-293 cells; HEK-293, 72 hours): 95% | inhibition (cell growth, cell counting) (HeLa cells; 48 hours of treatment, FIG. 4A): 66% | inhibition (cell growth) (HeLa cells; 72 hours): 97% | Effect of Bromoquinone on the Growth (cell survival, % of 0 μM) (rMC-1 cells; 0.5 μM bromoquinone): 88.2% | Effect of Bromoquinone on the Growth (cell survival, % of 0 μM) (rMC-1 cells; 1 μM bromoquinone): 80.1% | Effect of Bromoquinone on the Growth (cell survival, % of 0 μM) (rMC-1 cells; 2.5 μM bromoquinone): 68.1% | Effect of Bromoquinone on the Growth (cell survival, % of 0 μM) (rMC-1 cells; 5 μM bromoquinone): 36.2% | Effect of Bromoquinone on the Growth (cell survival, % of 0 μM) (rMC-1 cells; 10 μM bromoquinone): 27.9% | inhibition (cell growth) (INS-1 cell line): less than 20% | food and water consumption ([2]; 6-Br-Q0C10 treated rats): slight increase | reduction in body weight gain ([2]; rats, 0.5 mg/IG in 0.3 mL oil/butter (67%/33%) daily, compared to carrier mixture only): 30-40% | toxicity effect on rats ([2]; rats, even at the highest concentrations used): no toxicity effect | effect on growth (body weight gain) ([2]; rats, low concentrations, growth period): little effect; also recorded: slight | toxicity ([2]; rats, lower concentrations): no toxicity | P/O ratio [3]: 2 | redox potential higher than that of Coenzyme Q10 (Redox potential): about 30 mV | Effect of Bromoquinone on the Growth (cell survival, % of 0 μM) (Hep G2 cells; 0.5 μM bromoquinone): 103.1% | Effect of Bromoquinone on the Growth (cell survival, % of 0 μM) (Hep G2 cells; 1 μM bromoquinone): 107.8% | Effect of Bromoquinone on the Growth (cell survival, % of 0 μM) (Hep G2 cells; 2.5 μM bromoquinone): 104.2% | Effect of Bromoquinone on the Growth (cell survival, % of 0 μM) (Hep G2 cells; 5 μM bromoquinone): 98.1% | Effect of Bromoquinone on the Growth (cell survival, % of 0 μM) (Hep G2 cells; 10 μM bromoquinone): 93.3% | effect on Hep-G2 (cell growth) (Hep G2 cells; even at 10 μM): very small | Effect of Bromoquinone on the Growth (cell survival, % of 0 μM) (ARPE19 cells; 0.5 μM bromoquinone): 85.4% | Effect of Bromoquinone on the Growth (cell survival, % of 0 μM) (ARPE19 cells; 1 μM bromoquinone): 80.9% | Effect of Bromoquinone on the Growth (cell survival, % of 0 μM) (ARPE19 cells; 2.5 μM bromoquinone): 60.0% | Effect of Bromoquinone on the Growth (cell survival, % of 0 μM) (ARPE19 cells; 5 μM bromoquinone): 41.9% | Effect of Bromoquinone on the Growth (cell survival, % of 0 μM) (ARPE19 cells; 10 μM bromoquinone): 26.6% | inhibition at 50 µM [4]: 70% | inhibition at 50 µM [5]: ≤ 50%

CCCCCCCCCCC1=C(Cl)C(=O)C(OC)=C(OC)C1=O [6-Cl-Q0C10, 6-Chloro-2,3-dimethoxy-5-decyl-1,4-benzoquinone]
reducing cell growth [6]: effective in reducing cell growth

CCCCCCCCCCC1=C(C)C(=O)C(OC)=C(OC)C1=O [Q0C10, 2,3-dimethoxy-5-decyl-6-methyl-1,4-benzoquinone]
effect on cell growth [1]: no effect

COC1=C(OC)C(=O)C(CC=C(C)CCC=C(C)CCC=C(C)CCC=C(C)CCC=C(C)CCC=C(C)CCC=C(C)CCC=C(C)CCC=C(C)CCC=C(C)C)=C(C)C1=O [coenzyme Q10, 2,3-dimethoxy-5-(isoprenyl)10-6-methyl-1,4-benzoquinone]
effect on cell growth [1]: no effect
